Legend:
[1] = test system: metabolism of retinoic acid in human breast cancer cells; experiment: Inhibition of retinoic acid (RA) metabolism (Example C.1); format: cell-based; details: MCF-7 human breast cancer cells, 3H-RA as substrate, concentration needed to reduce the amount of metabolites to 50% of the control
Procedure, shortened: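 Test compound (in 1% DMSO) added at several concentrations to MCF-7 cell suspensions fed ³H-RA, after RA induction of metabolism one day earlier. Scintillation counting of the separated polar metabolite fraction; IC50 = concentration giving 50% of control metabolite level.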

[2] = test system: Ovariectomized rats; experiment: Vaginal keratinization test on ovariectomized rats (Example C.2); format: in vivo; details: estradiol undecylate induced keratinization, per os once daily on days 1-3, active dose = 50% of rats show complete suppression
Procedure, shortened: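 Value is the lowest oral dose (mg/kg) at which half of tested rats show complete suppression of estradiol undecylate-induced vaginal keratinization by histology. Ovariectomized rats received 100 μg/100 g estradiol undecylate s.c., then compound or PEG 200 vehicle p.o. daily for three days; sacrifice one day later.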

| Compound | IC50 [1] | LAD (lowest active dose) [2] | IC50 ([1]; MCF7) | minimal effective dose ([2]; Rattus norvegicus, po, read-out: LAD (lowest active dose)) |
| --- | --- | --- | --- | --- |
| C=C(C)C(=O)Nc1ccc(C(C(C)C)n2ccnc2)cc1 (racemic) [Compound 597] | 5 nM | >10.00 mg/kg |  |  |
| C/C(=C\c1ccc2[nH]c(=O)ccc2c1)C(=O)Nc1ccc(C(C(C)C)n2ccnc2)cc1 (racemic) [Compound 598] | 23.9 nM | >10.00 mg/kg |  |  |
| C/C(=C\c1ccc2nn(C)nc2c1)C(=O)Nc1ccc(C(C(C)C)n2ccnc2)cc1 (racemic) [Compound 599] | 6.36 nM | >20.00 mg/kg |  |  |
| C/C(=C\c1ccc(C)o1)C(=O)Nc1ccc(C(C(C)C)n2ccnc2)cc1 (racemic) [Compound 601] | 20 nM | 10.00 mg/kg |  |  |
| C/C(=C\c1ccc2nnn(C)c2c1)C(=O)Nc1ccc(C(C(C)C)n2ccnc2)cc1 (racemic) [Compound 602] | 25.7 nM | >10.00 mg/kg |  |  |
| C/C(=C\c1cc(=O)[nH]c2ccccc12)C(=O)Nc1ccc(C(C(C)C)n2ccnc2)cc1 (racemic) [Compound 603] | > 100 nM | >10.00 mg/kg |  |  |
| C/C(=C\c1ccccn1)C(=O)Nc1ccc(C(C(C)C)n2ccnc2)cc1 (racemic) [Compound 604] | 2.89 nM | >10.00 mg/kg |  |  |
| CC(=Cc1cccn1C)C(=O)Nc1ccc(C(C(C)C)n2ccnc2)cc1 (racemic) [Compound 605] | 14 nM | >10.00 mg/kg |  |  |
| CCOc1c(F)c(F)c(/C=C(\C)C(=O)Nc2ccc(C(C(C)C)n3ccnc3)cc2)c(F)c1F (racemic) [Compound 606] | 13.6 nM | >10.00 mg/kg |  |  |
| C/C(=C\c1ccc(F)c(Br)c1)C(=O)Nc1ccc(C(C(C)C)n2ccnc2)cc1 (racemic) [Compound 608] | 6.61 nM | >10.00 mg/kg |  |  |
| C/C(=C\c1ccc(C(F)(F)F)cc1F)C(=O)Nc1ccc(C(C(C)C)n2ccnc2)cc1 (racemic) [Compound 609] | 10.9 nM | 10.00 mg/kg |  |  |
| C/C(=C\c1ccc([N+](=O)[O-])cc1)C(=O)Nc1ccc(C(C(C)C)n2ccnc2)cc1 (racemic) [Compound 610] | 6.53 nM | >10.00 mg/kg |  |  |
| C/C(=C\c1ccc(N)cc1)C(=O)Nc1ccc(C(C(C)C)n2ccnc2)cc1 (racemic) [Compound 611, (±)-(E)-2-[(4-aminophenyl)methylene]-N-[4-[1-(1H-imidazol-1-yl)-2-methylpropyl]phenyl]propanamide] |  |  | 3.42 nM | 10 mg/kg |
| O=C(Cc1ccccc1)Nc1ccc(C(c2cccc(C(F)(F)F)c2)n2cncn2)cc1 (racemic) [Compound 614] | 278 nM | >20.00 mg/kg |  |  |
| O=C(/C=C/c1ccccc1)Nc1ccc(C(c2cccc(F)c2)n2cncn2)cc1 (racemic) [Compound 618] | 15.7 nM | >20.00 mg/kg |  |  |
| O=C(Cc1ccccc1)Nc1ccc(C(c2cccc(F)c2)n2cncn2)cc1 (racemic) [Compound 619] | 35.7 nM | >20.00 mg/kg |  |  |
| CCC(CC)C(c1ccc(NC(=O)C2Oc3ccccc3O2)cc1)n1cncn1 (racemic) [Compound 621] | 1.25 nM | 1.25 mg/kg |  |  |
| CC(C)(C)CC(c1ccc(NC(=O)Cc2ccc(Cl)cc2)cc1)n1cncn1 (racemic) [Compound 623] | 1.38 nM | >5.00 mg/kg |  |  |
| CCCC(C)C(c1ccc(NC(=O)Cc2ccc(OC)c(OC)c2)cc1)n1cncn1 (racemic) [Compound 639] | 1.68 nM | 2.50 mg/kg |  |  |
| CCCC(CCC)C(c1ccc(NC(=O)Cc2ccc(OC)c(OC)c2)cc1)n1cncn1 (racemic) [Compound 644] | 0.296 nM | 2.50 mg/kg |  |  |
| CC(C)C(c1ccc(NC(=O)Cc2cccc(Cl)c2)cc1)n1ccnc1 (racemic) [Compound 652] | > 100 nM | 10.00 mg/kg |  |  |
| CC(C)C(c1ccc(NC(=O)Cc2ccc(F)cc2)cc1)n1ccnc1 (racemic) [Compound 653] | 1.34 nM | 5.00 mg/kg |  |  |
| CC(C)C(c1ccc(NC(=O)Cc2cccc(C(F)(F)F)c2)cc1)n1ccnc1 (racemic) [Compound 654] | 2.34 nM | 5.00 mg/kg |  |  |
| CC(C)C(c1ccc(NC(=O)C(c2ccccc2)c2ccccc2)cc1)n1ccnc1 (racemic) [Compound 655] | 16.1 nM | >10.00 mg/kg |  |  |
| CC(C)C(C(=O)Nc1ccc(C(C(C)C)n2ccnc2)cc1)c1ccccc1 (racemic) [Compound 658] | 5.48 nM | >10.00 mg/kg |  |  |
| CCOc1ccc(CC(=O)Nc2ccc(C(C(C)C)n3ccnc3)cc2)cc1 (racemic) [Compound 663] | 1.95 nM | 2.50 mg/kg |  |  |
